IC50 data for 22 compounds are collected here from US10208016B2, “1-sulfonyl piperidine derivatives as modulators of prokineticin receptors” (TAKEDA PHARMACEUTICAL COMPANY LIMITED, priority 2013, dated 2019).

pIC50: −log10 of the molar value.

human PKR1 receptors, sequence (Q8TCW9 whole entry): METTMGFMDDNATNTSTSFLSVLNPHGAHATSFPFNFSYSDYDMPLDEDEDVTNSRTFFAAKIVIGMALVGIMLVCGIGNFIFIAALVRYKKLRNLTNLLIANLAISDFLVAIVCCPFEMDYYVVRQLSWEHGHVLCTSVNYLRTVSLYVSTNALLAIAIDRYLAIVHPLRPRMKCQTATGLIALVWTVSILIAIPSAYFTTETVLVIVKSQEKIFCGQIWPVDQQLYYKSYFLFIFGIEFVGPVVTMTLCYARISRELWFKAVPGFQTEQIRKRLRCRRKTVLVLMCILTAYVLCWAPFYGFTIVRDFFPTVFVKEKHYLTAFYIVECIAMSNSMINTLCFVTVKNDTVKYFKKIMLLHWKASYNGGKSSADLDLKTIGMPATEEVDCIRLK

This assay has as its target human PKR1 receptors (Homo sapiens (Human), UniProt Q8TCW9). The assay is described as follows: PKR1 antagonist calcium mobilisation assay (FLIPR), block of PK1-mediated intracellular calcium release. The assay is classed as cell-based. Particulars: RBL2H3 cells expressing human PKR1; stimulation with PK1 at EC80; calcium fluorescence. As to the method: Prokineticin receptor 1 (PKR1) antagonists may be functionally assessed by measurement of change in intracellular calcium levels induced by Gq mediated increase in inositol triphosphate (IP3) levels. The ability of a compound to block the intracellular release of calcium mediated by PK1 in RBL2H3 cells expressing human PKR1 receptors is determined as a measure of the compound's antagonist activity in vitro.
Approximately 10,000 cells per assay well are seeded in normal culture medium in a 384 well plate (Corning). Twenty-four hours after seeding, the cells are loaded with a calcium sensitive fluorescent dye by replacing the culture medium with assay buffer (1× Hanks buffered saline, 25 mM HEPES, 0.1% w/v fatty acid free BSA (bovine serum albumin), pH 7.4) containing 1 mM probenecid and 1× Calcium 5 Reagent (Molecular Devices). Cells are incubated at 37° C. for 1 hour to allow for dye uptake.
To test for antagonist activity, test compounds at a final concentration range between 0.32 nM-10 μM (diluted in assay buffer) are added to the assay wells and allowed to incubate for 10 minutes prior to stimulation with PK1. After incubation with test compounds the assay plate is placed in a FLIPR Tetra (Molecular Devices) and PK1 (diluted in assay buffer) is added at the determined EC80 concentration (final). Ligand-dependent changes in intracellular calcium levels are determined by measuring changes in fluorescence of the dye at […] following excitation at 485 nm.
In general terms: Calcium assays in cells follow changes in intracellular calcium, usually with a dye or a luminescent sensor.
For orientation: pIC50 means −log10 of the IC50, conventionally taken in molar units. For `Cc1nn(C)c(C)c1S(=O)(=O)N1CCC(=C(C#N)c2c(F)cccc2F)CC1` [Example 8, 2-(2,6-Difluorophenyl)-2-(1-((1,3,5-trimethyl-1H-pyrazol-4-yl)sulfonyl)piperidin-4-ylidene)acetonitrile], the negative logarithm of the IC50 (pIC50) was 5.27.
On to `Cc1n[nH]c(C)c1S(=O)(=O)N1CC/C(=C(\C#N)c2ccc(Cl)cc2)C(C)C1` (stereo not shown) [Example 10, 2-(4-Chlorophenyl)-2-(1-((3,5-dimethyl-1H-pyrazol-4-yl)sulfonyl)-3-methylpiperidin-4-ylidene) acetonitrile], for which the negative-log IC50 (pIC50) was 6.33.
As for `COC(=O)C(=C1CCN(S(=O)(=O)c2c(C)n[nH]c2C)CC1)c1ccc(Cl)cc1` [Example 2, Methyl 2-(4-Chlorophenyl)-2-(1-((3,5-dimethyl-1H-pyrazol-4-yl)sulfonyl)piperidin-4-ylidene)acetate], the negative logarithm of the IC50 (pIC50) was 5.51.
Take `Cc1n[nH]c(C)c1S(=O)(=O)N1CCC(=C(C#N)c2ccc(OC(F)(F)F)cc2)CC1` [Example 9]: the negative logarithm of the IC50 (pIC50) is 6.82.
Under `Cc1n[nH]c(C)c1S(=O)(=O)N1CCC(=C(F)c2ccc(F)c(Cl)c2)CC1` [Example 17, 4-((3-Chloro-4-fluorophenyl)fluoromethylene)-1-((3,5-dimethyl-1H-pyrazol-4-yl)sulfonyl) piperidine] stands 5.73; under `Cc1n[nH]c(C)c1S(=O)(=O)N1CCC(=Cc2ccc(Cl)cc2F)CC1` [Example 11, 4-(4-Chloro-2-fluorobenzylidene)-1-((3,5-dimethyl-1H-pyrazol-4-yl)sulfonyl)piperidine], 6.22.
For the compound `CC(=C1CCN(S(=O)(=O)c2c(C)n[nH]c2C)CC1)c1ccc(Cl)cc1` [Example 13], the negative-log IC50 (pIC50) was 6.12.
For the compound `Cc1n[nH]c(C)c1S(=O)(=O)N1CCC(=C(F)c2ccc(Cl)c(Cl)c2)CC1` [Example 19, 4-((3,4-Dichlorophenyl)fluoromethylene)-1-((3,5-dimethyl-1H-pyrazol-4-yl)sulfonyl)piperidine], the pIC50 was 6.28.
On to `Cc1nn(C)c(C)c1S(=O)(=O)N1CCC(=Cc2ccc(Cl)cc2F)CC1` [Example 12, 4-(4-Chloro-2-fluorobenzylidene)-1-((1,3,5-trimethyl-1H-pyrazol-4-yl)sulfonyl)piperidine], for which the pIC50 was 6.26.
Regarding `Cc1n[nH]c(C)c1S(=O)(=O)N1CCC(=C(F)c2ccc(Cl)cc2F)CC1` [Example 21, 4-((4-Chloro-2-fluorophenyl)fluoromethylene)-1-((3,5-dimethyl-1H-pyrazol-4-yl)sulfonyl)piperidine], the negative logarithm of the IC50 (pIC50) is 6.40.
Turning to `Cc1n[nH]c(C)c1S(=O)(=O)N1CCC(=C(C#N)c2c(F)cccc2F)CC1` [Example 4, 2-(2,6-Difluorophenyl)-2-(1-((3,5-dimethyl-1H-pyrazol-4-yl)sulfonyl)piperidin-4-ylidene)acetonitrile], the pIC50 is 5.43.
Consider `Cc1n[nH]c(C)c1S(=O)(=O)N1CCC(=C(F)c2ccc(Cl)c(F)c2)CC1` [Example 20, 4-((4-Chloro-3-fluorophenyl)fluoromethylene)-1-((3,5-dimethyl-1H-pyrazol-4-yl)sulfonyl)piperidine], for which the pIC50 is 6.72.
For the compound `Cc1[nH]nc(C2CC2)c1S(=O)(=O)N1CCC(Cc2ccc(Cl)c(F)c2)CC1` [Example 1, 4-(4-Chloro-3-fluorobenzyl)-1-((3-cyclopropyl-5-methyl-1H-pyrazol-4-yl)sulfonyl)piperidine], the negative logarithm of the IC50 (pIC50) is 5.86.
As for `Cc1n[nH]c(C)c1S(=O)(=O)N1CCC(=C(F)c2ccc(Cl)cc2Cl)CC1` [Example 18, 4-((2,4-Dichlorophenyl)fluoromethylene)-1-((3,5-dimethyl-1H-pyrazol-4-yl)sulfonyl)piperidine], the pIC50 is 6.59.
As to `Cc1nn(C)c(C)c1S(=O)(=O)N1CCC(=C(C#N)c2ccc(Cl)cc2)CC1` [Example 15, 2-(4-Chlorophenyl)-2-(1-((1,3,5-trimethyl-1H-pyrazol-4-yl)sulfonyl)piperidin-4-ylidene)acetonitrile], the negative-log IC50 (pIC50) was 7.40.
`Cc1n[nH]c(C)c1S(=O)(=O)N1CCC(=Cc2ccc(Cl)cc2)CC1` [Example 14, 4-(4-Chlorobenzylidene)-1-((3,5-dimethyl-1H-pyrazol-4-yl)sulfonyl)piperidine]: the pIC50 is 6.12.
Under `Cc1n[nH]c(C)c1S(=O)(=O)N1CCC(=C(F)c2cnc3ccccc3c2)CC1` [Example 23] stands 7.22; under `Cc1n[nH]c(C)c1S(=O)(=O)N1CCC(=C(C#N)c2ccc(Cl)cc2)CC1` [Example 3, 2-(4-Chlorophenyl)-2-(1-((3,5-dimethyl-1H-pyrazol-4-yl)sulfonyl)piperidin-4-ylidene)acetonitrile], 7.40.
With `Cc1c(S(=O)(=O)N2CCC(=C(C#N)c3ccc(Cl)cc3)CC2)c(C(F)(F)F)nn1C` [Example 7, 2-(4-Chlorophenyl)-2-(1-((1,5-dimethyl-3-(trifluoromethyl)-1H-pyrazol-4-yl)sulfonyl)piperidin-4-ylidene)acetonitrile], the negative-log IC50 (pIC50) was 6.68.
Then `CCc1n[nH]c(CC)c1S(=O)(=O)N1CCC(=C(C#N)c2ccc(Cl)cc2)CC1` [Example 6, 2-(4-Chlorophenyl)-2-(1-((3,5-diethyl-1H-pyrazol-4-yl)sulfonyl)piperidin-4-ylidene)acetonitrile], with 7.30; and `Cc1n[nH]c(C)c1S(=O)(=O)N1CCC(=C(F)c2ccc(Cl)cc2)CC1` [Example 16, 4-((4-Chlorophenyl)fluoromethylene)-1-((3,5-dimethyl-1H-pyrazol-4-yl)sulfonyl)piperidine], with 6.80; and `Cc1n[nH]c(C)c1S(=O)(=O)N1CCC(=C(C#N)c2ccc(Cl)cc2F)CC1` [Example 5, 2-(4-Chloro-2-fluorophenyl)-2-(1-((3,5-dimethyl-1H-pyrazol-4-yl)sulfonyl)piperidin-4-ylidene)acetonitrile], with 6.74.
